In US9827312B2, “Method for carrying therapeutic substances into cells” (MAGFORCE AG, priority 2005, dated 2017):

Assays:
tumor cells (in vitro) = test: Destruction of tumor cells in vitro by cefamandole alone; format: cell-based; conditions: cefamandole without nanoparticles
Text: Cefamandole (CAS No 30034-03-8) is used to combat bacterial infections. […] This substance's potential to combat cancer cells, however, is to be considered to be rather low. […] It is, however, possible to drastically increase the efficacy of cefamandole in the treatment of tumor cells by the simultaneous application of nanoparticles.

[1] = test system: BT20 (breast carcinoma) cells; test: Efficacy of cefamandole/nanoparticle mixture in vitro, BT20 (Example 2); format: cell-based, human; conditions: 72 hrs incubation, cefamandole 0.016 mg/ml in medium, 136 μl MFL AS M01
Protocol: (§1) The experiments in vitro were carried out with the cell lines BT20 (breast carcinoma) and WiDr (colon carcinoma). The tumor cells were taken from tumor tissue of a patient and cultivated as described in DE 199 12 798 C1. 2×10^6 cells, respectively, were prepared in a 75 cm^3 cell culture bottle with 25 ml of cell culture medium (RPMI+10% FBS+1.2 ml of pyruvate for WiDr cells, or respectively BME+10% FBS+pyruvate+5 ml of non-essential amino acids+5 ml glutamine for BT20 cells) for testing the efficacy of the cefamandole/nanoparticle mixture. 136 μl of magnetic fluid MFL AS M01 (iron oxide nanoparticle coated with polycondensed N-(2-aminoethyl)-3-(trimethoxysilyl)propylamine, manufacturer: MagForce Nanotechnologies GmbH, Berlin, Germany) (cFe=2 mol/l) and 390 μl of cefamandole solution (stock solution 1 mg/ml in 0.9% NaCl) were added to said cell suspension.
(§2) After 72 hrs, 30.5% of the BT20 cells and 24% of the WiDr cells had died. Neither cefamandole in the selected concentration, nor the nanoparticle alone, are capable of causing cell death (0% of dead cells). Only the combination of cefamandole and nanoparticles leads to said significant damage of the tumor cells which is due to the transfer of cefamandole into the cells.

[2] = test system: WiDr (colon carcinoma) cells; test: Efficacy of cefamandole/nanoparticle mixture in vitro, WiDr (Example 2); format: cell-based, human; conditions: 72 hrs incubation, cefamandole 0.016 mg/ml in medium, 136 μl MFL AS M01
Protocol: as §1, §2

[3] = test system: glioblastoma human cell line RUSIRS1; test: Increase in the activity of cytostatics with nanoparticles (Table 1), RUSIRS1; format: cell-based; conditions: procedure of example 2
Protocol: as §1
(§3) Corresponding to the experiment procedure according to example 2, the following […] were tested in vitro with the active ingredients listed in table 1: a) glioblastoma human cell line RUSIRS 1; b) breast carcinoma cell lines BT20; c) colon carcinoma cell line WiDR; d) bronchial carcinoma cells NSCLC, e) rectal carcinoma cells and f) prostate carcinoma cell line DU 145.
(§4) In all cases, an increased activity of the cytostatic could be observed. The increase in activity is indicated in parentheses after the respective cytostatic, wherein (+) means an increase of about 5% to 80% and (++) means an increase of 80% to 500%.

[4] = test system: breast carcinoma cell lines BT20; test: Increase in the activity of cytostatics with nanoparticles (Table 1), BT20; format: cell-based, human; conditions: procedure of example 2
Protocol: as §1, §3, §4

[5] = test system: colon carcinoma cell line WiDr; test: Increase in the activity of cytostatics with nanoparticles (Table 1), WiDr; format: cell-based, human; conditions: procedure of example 2
Protocol: as §1, §3, §4

[6] = test system: bronchial carcinoma cells NSCLC; test: Increase in the activity of cytostatics with nanoparticles (Table 1), NSCLC; format: cell-based; conditions: procedure of example 2
Protocol: as §1, §3, §4

rectal carcinoma cells = test: Increase in the activity of cytostatics with nanoparticles (Table 1), rectal carcinoma; format: cell-based; conditions: procedure of example 2
Protocol: as §1, §3, §4

[7] = test system: prostate carcinoma cell line DU 145; test: Increase in the activity of cytostatics with nanoparticles (Table 1), DU 145; format: cell-based; conditions: procedure of example 2
Protocol: as §1, §3, §4

neuroglioma cell line H4 = test: Increase in the activity of cytostatics with nanoparticles (Table 1), H4; format: cell-based; conditions: procedure of example 2
Protocol: as §1, §3, §4

| SMILES | concentration in the cell culture medium needed for destruction of tumor cells (tumor cells (in vitro)) [mg/mL] | dead cells [1] [%] | dead cells [2] [%] | increase in the activity of cytostatics [3] | increase in the activity of cytostatics [4] | increase in the activity of cytostatics [5] | increase in the activity of cytostatics [6] | increase in the activity of cytostatics (rectal carcinoma cells) | increase in the activity of cytostatics [7] | increase in the activity of cytostatics (neuroglioma cell line H4) |
| --- | --- | --- | --- | --- | --- | --- | --- | --- | --- | --- |
| Cn1nnnc1SCC1=C(C(=O)O)N2C(=O)[C@@H](NC(=O)[C@H](O)c3ccccc3)[C@H]2SC1 [cefamandole, Cefamandole] | ≥ 0.5 | 0 | 0 |  |  |  |  |  |  |  |
| COCc1c(C(C)C)nc(C(C)C)c(/C=C/[C@@H](O)C[C@@H](O)CC(=O)O)c1-c1ccc(F)cc1 [cerivastatin] |  |  |  | (+) ((+) means an increase of about 5% to 80%) | (+) ((+) means an increase of about 5% to 80%) | (+) ((+) means an increase of about 5% to 80%) | (+) ((+) means an increase of about 5% to 80%) | (++) ((++) means an increase of 80% to 500%) | (+) ((+) means an increase of about 5% to 80%) | (+) ((+) means an increase of about 5% to 80%) |
| N#Cc1ccc(C(c2ccc(C#N)cc2)n2cncn2)cc1 [letrozole] |  |  |  | (+) ((+) means an increase of about 5% to 80%) | (+) ((+) means an increase of about 5% to 80%) | (+) ((+) means an increase of about 5% to 80%) | (+) ((+) means an increase of about 5% to 80%) | (+) ((+) means an increase of about 5% to 80%) | (+) ((+) means an increase of about 5% to 80%) | (+) ((+) means an increase of about 5% to 80%) |
